Source: ChEMBL document CHEMBL1201862, “PubChem BioAssay data set” (2004)
Activity calls are given as the source filed them.

Assays:
Aminopeptidase N = target: T1, Aminopeptidase N (Plasmodium falciparum FcB1/Columbia, UniProt O96935); experiment: malaria alanyl aminopeptidase activity blockers – biochemical, fluorogenic H-Leu-NHMec substrate, 1536-well (AID 1445); parameters: species or system Plasmodium falciparum 3D7, 3D7
T1 sequence (O96935 whole entry): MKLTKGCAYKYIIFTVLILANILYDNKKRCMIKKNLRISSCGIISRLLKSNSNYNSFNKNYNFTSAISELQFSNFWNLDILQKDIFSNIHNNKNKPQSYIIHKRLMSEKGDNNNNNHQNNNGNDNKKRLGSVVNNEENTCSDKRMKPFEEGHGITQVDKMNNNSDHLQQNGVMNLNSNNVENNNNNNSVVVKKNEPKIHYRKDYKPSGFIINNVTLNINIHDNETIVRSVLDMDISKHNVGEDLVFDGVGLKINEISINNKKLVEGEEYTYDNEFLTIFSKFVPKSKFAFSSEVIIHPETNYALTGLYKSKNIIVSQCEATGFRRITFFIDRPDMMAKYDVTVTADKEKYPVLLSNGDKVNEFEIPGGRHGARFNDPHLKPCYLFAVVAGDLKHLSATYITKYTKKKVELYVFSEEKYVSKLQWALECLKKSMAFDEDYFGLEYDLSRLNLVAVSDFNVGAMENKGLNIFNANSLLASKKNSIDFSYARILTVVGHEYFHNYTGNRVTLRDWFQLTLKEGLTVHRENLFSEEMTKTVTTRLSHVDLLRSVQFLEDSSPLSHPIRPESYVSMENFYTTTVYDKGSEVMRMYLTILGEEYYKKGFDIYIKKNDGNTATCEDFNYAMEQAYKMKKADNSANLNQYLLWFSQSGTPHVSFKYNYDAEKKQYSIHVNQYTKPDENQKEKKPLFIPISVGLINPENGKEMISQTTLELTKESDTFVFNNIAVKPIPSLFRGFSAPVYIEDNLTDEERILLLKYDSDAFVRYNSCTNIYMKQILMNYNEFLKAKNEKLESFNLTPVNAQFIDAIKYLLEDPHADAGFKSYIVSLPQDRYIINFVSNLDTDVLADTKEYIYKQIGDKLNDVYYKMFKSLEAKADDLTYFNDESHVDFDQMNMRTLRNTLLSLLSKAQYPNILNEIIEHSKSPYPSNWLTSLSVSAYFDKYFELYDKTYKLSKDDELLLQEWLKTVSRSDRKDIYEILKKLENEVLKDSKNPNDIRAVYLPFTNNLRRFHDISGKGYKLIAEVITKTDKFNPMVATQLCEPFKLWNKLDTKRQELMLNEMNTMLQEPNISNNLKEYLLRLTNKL

HT-1080 = experiment: HT1080 cell viability loss – fluorescence readout (AID 620); format: functional, cell-based; conditions: Homo sapiens
[1] = target: T2, Luciferin 4-monooxygenase (Photinus pyralis, UniProt P08659); experiment: Counter Screen for Luciferase-based Assay Positives. [Related pubchem assays: 620, 618, 411 ]
[2] = luciferase reporter signal suppression in cells – H4 neuroglioma cells, luminescence, dose response (AID 1990); format: functional, cell-based
[3] = alpha-synuclein stem-loop translation blockers – luminescence, H4 neuroglioblastoma cells, dose confirmation, confirmation (AID 2454); format: functional, cell-based;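 note: H4 neuroglioblastoma cells carrying an alpha-synuclein 5'UTR luciferase reporter; potency for inhibition of the luciferase signal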
[4] = luciferase reporter signal reduction – luminescence, H4-C neuroglioblastoma cells, dose response (AID 2458); format: functional, cell-based;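 note: H4 neuroglioblastoma cells stably carrying a luciferase reporter gene fusion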
cells [5] = format: functional, cell-based
[6] = Luminescence Cell-Based Dose Response HTS to Identify Inhibitors of 5'UTR Stem-Loop Driven Prion Protein mRNA Translation in H4 Neuroglioblastoma Cells. [Related pubchem assays: 1827 (Project Summary), 1813 (Primary HTS)]; format: functional
[7] = target: T3, Heat shock factor protein 1 (Mus musculus, UniProt P38532); experiment: decrease of HSF1-responsive luciferase luminescence – cell-based, NIH3T3, dose retest, confirmation (AID 2382); format: functional;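 note: NIH3T3 fibroblasts with HSF1-driven luciferase reporter stressed by proteasome inhibitor MG132; luminescence from HSF1-driven luciferase expression after 8 hours of MG132 stress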
T3 sequence (P38532 whole entry): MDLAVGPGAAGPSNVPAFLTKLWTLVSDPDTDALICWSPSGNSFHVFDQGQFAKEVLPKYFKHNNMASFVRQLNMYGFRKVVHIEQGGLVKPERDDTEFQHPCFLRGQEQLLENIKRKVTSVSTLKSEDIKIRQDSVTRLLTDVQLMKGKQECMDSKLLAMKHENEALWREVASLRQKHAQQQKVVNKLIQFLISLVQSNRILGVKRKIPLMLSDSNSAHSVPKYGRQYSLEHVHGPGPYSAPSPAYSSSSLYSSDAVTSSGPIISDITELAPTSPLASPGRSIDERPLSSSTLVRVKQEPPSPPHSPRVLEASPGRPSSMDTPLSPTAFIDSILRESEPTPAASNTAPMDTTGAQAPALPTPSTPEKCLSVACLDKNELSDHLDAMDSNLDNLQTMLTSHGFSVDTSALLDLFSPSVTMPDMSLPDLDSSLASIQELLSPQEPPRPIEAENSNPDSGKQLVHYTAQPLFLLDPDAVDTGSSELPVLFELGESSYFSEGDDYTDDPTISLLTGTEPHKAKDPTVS

[8] = HEK-293T viability loss after treatment – luminescence, T-cell screen hits, cytotoxicity control for TCR NF-kB inhibitor project, dose response (AID 489026); format: functional, cell-based;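 note: cells exposed to compound about 14 hours before the viability readout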
[9] = alpha-synuclein stem-loop luciferase translation blockers – H4 neuroglioma cells, luminescence, confirmation (AID 1988); format: functional, cell-based
[10] = target: T4, Rac GTPase-activating protein 1 (Homo sapiens, UniProt Q9H0H5); experiment: blockers of MgcRacGAP-driven Rac1 GTP hydrolysis – biochemical, ADP Hunter fluorescence, primary and confirmatory, confirmation (AID 624330); format: functional
T4 sequence (Q9H0H5 whole entry): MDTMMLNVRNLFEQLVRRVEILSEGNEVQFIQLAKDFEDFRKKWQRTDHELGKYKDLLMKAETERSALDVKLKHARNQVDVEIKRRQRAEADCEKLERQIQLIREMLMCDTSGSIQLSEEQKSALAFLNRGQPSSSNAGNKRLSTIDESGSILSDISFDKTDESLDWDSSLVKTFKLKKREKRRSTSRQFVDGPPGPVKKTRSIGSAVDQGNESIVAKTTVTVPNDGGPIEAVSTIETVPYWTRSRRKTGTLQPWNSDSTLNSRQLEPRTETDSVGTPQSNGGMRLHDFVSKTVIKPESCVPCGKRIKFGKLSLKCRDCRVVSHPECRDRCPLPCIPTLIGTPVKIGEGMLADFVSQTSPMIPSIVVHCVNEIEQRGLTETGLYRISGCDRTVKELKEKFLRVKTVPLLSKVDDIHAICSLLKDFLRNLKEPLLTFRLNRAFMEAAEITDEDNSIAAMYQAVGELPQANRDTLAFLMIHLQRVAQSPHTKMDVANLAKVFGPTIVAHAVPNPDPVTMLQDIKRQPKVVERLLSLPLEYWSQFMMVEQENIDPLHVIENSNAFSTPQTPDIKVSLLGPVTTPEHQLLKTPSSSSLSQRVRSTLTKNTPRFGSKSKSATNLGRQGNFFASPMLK

HEK293 = experiment: EBV LMP1 TES2 canonical NF-kB signalling blockers – cell-based, HEK293, luciferase, cherry-pick, dose response (AID 588343); format: functional; conditions: Homo sapiens
[11] = target: T5, Neuropeptide Y receptor type 2 (Homo sapiens, UniProt P49146); format: functional, cell-based;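 note: HEK293 cells expressing the receptor and a CNG channel; stimulus was NPY near EC95 followed by isoproterenol to raise cAMP; antagonist potency measured as restoring cAMP signal that NPY suppresses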
T5 sequence (P49146 whole entry): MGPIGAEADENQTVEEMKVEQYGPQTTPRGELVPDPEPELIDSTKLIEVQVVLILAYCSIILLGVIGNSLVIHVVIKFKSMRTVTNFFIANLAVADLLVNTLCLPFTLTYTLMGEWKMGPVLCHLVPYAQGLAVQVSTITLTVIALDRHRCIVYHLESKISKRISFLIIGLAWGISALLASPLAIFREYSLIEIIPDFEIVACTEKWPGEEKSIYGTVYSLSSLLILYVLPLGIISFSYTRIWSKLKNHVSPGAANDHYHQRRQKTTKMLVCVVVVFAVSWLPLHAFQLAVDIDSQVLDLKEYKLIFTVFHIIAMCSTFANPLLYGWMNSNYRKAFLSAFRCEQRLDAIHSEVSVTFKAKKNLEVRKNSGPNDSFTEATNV

[12] = target: T6, Calpain-2 catalytic subunit (Sus scrofa, UniProt P43367); experiment: m-calpain protease blockers, concentration series – biochemical, fluorogenic peptide substrate, dose response (AID 1420); format: functional
T6 sequence (P43367 whole entry): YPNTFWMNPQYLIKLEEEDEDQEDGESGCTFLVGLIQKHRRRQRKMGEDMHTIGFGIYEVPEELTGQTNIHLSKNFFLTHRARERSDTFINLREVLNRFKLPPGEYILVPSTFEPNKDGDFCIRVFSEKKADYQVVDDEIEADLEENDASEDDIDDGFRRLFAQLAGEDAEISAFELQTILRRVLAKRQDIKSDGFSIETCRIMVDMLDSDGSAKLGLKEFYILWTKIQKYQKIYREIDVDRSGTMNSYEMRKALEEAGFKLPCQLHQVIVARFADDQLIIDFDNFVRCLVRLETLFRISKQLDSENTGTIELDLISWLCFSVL

[13] = target: T7, Neuropeptide Y receptor type 1 (Homo sapiens, UniProt P25929); format: functional;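 note: HEK293 cells with a CNG channel challenged with NPY then isoproterenol; potency as antagonist that reverses NPY suppression of cAMP signal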
T7 sequence (P25929 whole entry): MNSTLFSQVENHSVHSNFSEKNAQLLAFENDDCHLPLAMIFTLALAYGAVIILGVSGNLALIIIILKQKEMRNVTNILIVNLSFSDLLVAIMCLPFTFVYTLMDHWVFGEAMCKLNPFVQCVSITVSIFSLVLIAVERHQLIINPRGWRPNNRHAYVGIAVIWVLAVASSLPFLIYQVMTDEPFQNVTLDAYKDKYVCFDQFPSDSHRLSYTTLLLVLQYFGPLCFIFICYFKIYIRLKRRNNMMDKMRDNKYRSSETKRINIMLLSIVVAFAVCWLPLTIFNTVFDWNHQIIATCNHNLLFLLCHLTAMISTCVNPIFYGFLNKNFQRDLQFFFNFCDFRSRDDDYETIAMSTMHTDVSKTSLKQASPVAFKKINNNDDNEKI

cells [14] = format: functional
[15] = Vero E6 cell cytotoxicity, dose response, cytotoxicity control for non-replicating M. tuberculosis project, secondary assay (AID 492998); format: functional, VeroE6; conditions: Vero C1008
[16] = THP-1 cell cytotoxicity, dose response, cytotoxicity control for non-replicating M. tuberculosis project (AID 489025); format: functional
[17] = HepG2 cell cytotoxicity, dose response, cytotoxicity control for non-replicating M. tuberculosis project (AID 489018); format: functional; conditions: Mycobacterium tuberculosis
[18] = Luminescence Cell-Based Dose Confirmation HTS to Identify Inhibitors of Platelet Dense Granule Release. [Related pubchem assays: 1663 (Primary HTS), 1678 (Summary of Project)]; format: functional
[19] = loss of viability in HepG2 cells – cell-based, CellTiter-Glo, cherry-picked, cytotoxicity control for Shn3 inhibitor project, dose response (AID 624134); format: functional
[20] = reduction of Shn3 3'UTR-driven luciferase in osteoblasts – cell-based, Clone20 osteoblasts, firefly luciferase, cherry-picked, dose response (AID 624132); format: functional;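 note: firefly luciferase luminescence from reporter carrying the Shn3 3'UTR in osteoblasts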
[21] = target: T2, Luciferin 4-monooxygenase; experiment: inhibition of purified Photinus pyralis luciferase – biochemical, luminescence, dose response (AID 1891)
Trypsin = Trypsin (Sus scrofa, UniProt P00761); experiment: trypsin protease activity blockade – biochemical, quenched peptide fluorescence, cherry-pick, selectivity assay for Rce1 protease inhibitor project, dose response (AID 488789)
[22] = target: T8, Voltage-gated N-type calcium channel alpha-1B subunit/Amyloid beta A4 precursor protein-binding family A member 1 (Homo sapiens, UniProt Q00975+Q02410); format: protein assay
[23] = target: T8, Voltage-gated N-type calcium channel alpha-1B subunit/Amyloid beta A4 precursor protein-binding family A member 1; format: protein assay; remark: listed apart in the source

T2 sequence (P08659 whole entry): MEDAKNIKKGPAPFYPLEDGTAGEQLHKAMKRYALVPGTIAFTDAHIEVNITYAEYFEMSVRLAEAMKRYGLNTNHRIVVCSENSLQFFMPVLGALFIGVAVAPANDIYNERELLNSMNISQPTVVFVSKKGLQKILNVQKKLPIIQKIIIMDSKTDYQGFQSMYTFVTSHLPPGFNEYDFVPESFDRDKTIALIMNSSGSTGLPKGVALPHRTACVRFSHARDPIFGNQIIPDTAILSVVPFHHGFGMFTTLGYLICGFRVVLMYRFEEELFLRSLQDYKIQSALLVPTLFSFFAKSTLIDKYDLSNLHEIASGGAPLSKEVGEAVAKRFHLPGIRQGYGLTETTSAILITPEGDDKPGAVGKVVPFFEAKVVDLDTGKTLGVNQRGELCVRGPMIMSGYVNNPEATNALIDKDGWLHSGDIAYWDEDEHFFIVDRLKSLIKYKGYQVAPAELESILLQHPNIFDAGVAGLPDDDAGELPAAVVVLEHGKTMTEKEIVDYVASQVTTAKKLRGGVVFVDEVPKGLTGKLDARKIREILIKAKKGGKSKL
T8 sequence (Q00975 whole entry): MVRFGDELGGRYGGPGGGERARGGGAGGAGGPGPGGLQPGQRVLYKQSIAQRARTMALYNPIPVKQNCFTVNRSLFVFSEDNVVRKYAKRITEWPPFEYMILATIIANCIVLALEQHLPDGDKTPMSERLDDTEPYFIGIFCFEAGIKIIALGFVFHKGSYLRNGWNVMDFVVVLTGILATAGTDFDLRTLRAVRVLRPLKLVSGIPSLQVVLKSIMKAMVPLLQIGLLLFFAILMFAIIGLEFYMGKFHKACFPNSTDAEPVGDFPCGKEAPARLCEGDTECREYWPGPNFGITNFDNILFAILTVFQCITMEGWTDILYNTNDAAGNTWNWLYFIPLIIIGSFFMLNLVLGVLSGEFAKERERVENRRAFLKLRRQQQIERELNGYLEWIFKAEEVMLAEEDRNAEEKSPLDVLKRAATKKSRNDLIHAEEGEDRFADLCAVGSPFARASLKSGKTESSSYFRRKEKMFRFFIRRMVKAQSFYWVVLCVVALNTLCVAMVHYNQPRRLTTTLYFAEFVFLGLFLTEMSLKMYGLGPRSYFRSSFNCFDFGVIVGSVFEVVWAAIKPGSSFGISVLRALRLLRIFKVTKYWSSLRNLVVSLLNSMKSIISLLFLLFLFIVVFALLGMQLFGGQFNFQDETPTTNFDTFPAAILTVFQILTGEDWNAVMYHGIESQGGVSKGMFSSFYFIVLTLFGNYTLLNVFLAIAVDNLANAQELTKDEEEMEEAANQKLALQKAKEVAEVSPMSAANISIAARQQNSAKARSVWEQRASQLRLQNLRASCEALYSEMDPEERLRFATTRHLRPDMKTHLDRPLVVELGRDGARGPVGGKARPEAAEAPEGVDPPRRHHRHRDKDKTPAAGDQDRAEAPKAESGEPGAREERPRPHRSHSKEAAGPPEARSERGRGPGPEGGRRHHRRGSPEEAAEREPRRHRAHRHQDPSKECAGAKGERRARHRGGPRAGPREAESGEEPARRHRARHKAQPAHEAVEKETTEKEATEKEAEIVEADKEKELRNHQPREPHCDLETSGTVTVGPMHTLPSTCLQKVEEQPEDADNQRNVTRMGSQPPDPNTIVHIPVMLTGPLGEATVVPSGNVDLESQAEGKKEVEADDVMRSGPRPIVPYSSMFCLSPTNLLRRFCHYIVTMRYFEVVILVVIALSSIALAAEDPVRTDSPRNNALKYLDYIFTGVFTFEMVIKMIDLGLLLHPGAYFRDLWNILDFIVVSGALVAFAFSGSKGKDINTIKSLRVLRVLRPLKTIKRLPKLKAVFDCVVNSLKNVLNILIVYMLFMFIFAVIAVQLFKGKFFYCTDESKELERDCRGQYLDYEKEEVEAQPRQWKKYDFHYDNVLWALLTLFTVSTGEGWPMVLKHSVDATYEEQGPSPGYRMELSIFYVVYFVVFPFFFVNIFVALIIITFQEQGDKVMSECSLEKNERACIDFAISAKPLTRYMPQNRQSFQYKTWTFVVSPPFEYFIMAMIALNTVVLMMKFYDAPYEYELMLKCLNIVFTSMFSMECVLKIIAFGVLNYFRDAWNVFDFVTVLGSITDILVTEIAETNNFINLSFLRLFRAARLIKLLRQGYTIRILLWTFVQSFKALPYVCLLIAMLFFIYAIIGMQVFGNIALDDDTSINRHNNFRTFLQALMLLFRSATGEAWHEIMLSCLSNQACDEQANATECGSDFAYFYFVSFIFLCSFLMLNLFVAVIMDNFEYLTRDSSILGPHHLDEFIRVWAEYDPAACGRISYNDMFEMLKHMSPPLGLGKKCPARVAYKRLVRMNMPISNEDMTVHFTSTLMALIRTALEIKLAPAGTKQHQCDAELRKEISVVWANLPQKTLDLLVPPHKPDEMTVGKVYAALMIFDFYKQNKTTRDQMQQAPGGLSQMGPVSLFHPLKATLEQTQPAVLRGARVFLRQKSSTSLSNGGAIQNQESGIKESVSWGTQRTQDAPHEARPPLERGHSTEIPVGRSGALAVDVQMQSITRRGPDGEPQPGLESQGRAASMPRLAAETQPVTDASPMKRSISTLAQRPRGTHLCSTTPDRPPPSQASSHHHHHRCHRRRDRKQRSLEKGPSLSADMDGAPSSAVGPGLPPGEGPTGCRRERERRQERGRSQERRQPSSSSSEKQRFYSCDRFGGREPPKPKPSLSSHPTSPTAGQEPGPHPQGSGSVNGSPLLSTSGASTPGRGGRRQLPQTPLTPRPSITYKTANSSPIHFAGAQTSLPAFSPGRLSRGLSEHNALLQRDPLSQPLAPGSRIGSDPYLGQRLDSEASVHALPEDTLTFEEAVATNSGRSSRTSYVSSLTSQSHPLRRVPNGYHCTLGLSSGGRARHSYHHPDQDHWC
T8 sequence (Q02410 whole entry): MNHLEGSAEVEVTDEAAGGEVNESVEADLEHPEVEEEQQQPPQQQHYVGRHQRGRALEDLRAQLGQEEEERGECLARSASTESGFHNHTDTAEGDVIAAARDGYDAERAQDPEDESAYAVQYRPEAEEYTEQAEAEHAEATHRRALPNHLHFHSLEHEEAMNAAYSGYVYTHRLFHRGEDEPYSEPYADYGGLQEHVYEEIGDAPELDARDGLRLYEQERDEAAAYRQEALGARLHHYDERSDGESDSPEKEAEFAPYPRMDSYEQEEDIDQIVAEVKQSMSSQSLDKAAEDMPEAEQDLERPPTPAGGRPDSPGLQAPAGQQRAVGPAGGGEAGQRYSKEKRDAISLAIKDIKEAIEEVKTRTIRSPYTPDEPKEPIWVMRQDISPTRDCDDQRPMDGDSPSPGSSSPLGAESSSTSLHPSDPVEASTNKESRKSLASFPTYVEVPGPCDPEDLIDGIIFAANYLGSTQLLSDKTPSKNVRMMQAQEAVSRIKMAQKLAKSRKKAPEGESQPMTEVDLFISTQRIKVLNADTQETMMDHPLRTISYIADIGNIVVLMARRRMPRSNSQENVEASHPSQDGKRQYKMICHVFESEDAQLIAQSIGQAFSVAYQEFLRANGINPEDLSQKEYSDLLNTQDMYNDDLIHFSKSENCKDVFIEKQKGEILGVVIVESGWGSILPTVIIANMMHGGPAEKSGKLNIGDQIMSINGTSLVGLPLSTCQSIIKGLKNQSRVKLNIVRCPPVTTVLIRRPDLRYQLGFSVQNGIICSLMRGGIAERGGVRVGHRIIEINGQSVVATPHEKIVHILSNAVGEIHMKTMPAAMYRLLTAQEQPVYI
Sequence of Trypsin (P00761 whole entry): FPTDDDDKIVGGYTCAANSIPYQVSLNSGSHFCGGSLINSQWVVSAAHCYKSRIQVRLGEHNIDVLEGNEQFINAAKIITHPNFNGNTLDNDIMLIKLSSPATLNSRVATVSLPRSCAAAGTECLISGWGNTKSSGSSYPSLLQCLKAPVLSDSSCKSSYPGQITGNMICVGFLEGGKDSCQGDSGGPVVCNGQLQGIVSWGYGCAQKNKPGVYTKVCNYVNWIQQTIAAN

In the case of `O=C(NCc1ccc2c(c1)OCO2)C1CCCN1C(=O)Nc1cccc(F)c1` (stereo not drawn), the IC50 (Aminopeptidase N) is reported as 75 µM (active).

For `c1ccc(-c2noc(-c3cccs3)n2)nc1`, the EC50 (HT-1080) was > 50 µM (not active) and the EC50 [1] was > 100 µM (not active).

With `O=[N+]([O-])c1nn(-c2ccc3c(c2)OCCO3)[n+]([O-])c1Nc1ccccc1` the EC50 [2] was < 0.1 µM (active), the EC50 [3] was 0.09 µM (active) and the EC50 [4] was 0.098 µM (active). For the same compound, the EC50 (cells [5]) was 4.89 µM (active), the EC50 [6] was < 0.1 µM (active) and the EC50 [7] was < 0.16 µM (active). The IC50 [8] was > 80 µM (inactive) and the EC50 [9] was < 0.1 µM (active).

For `CSCCC(C(=O)NC1=NCCS1)N1C(=O)c2ccccc2C1=O` (stereo not drawn), the IC50 (Aminopeptidase N) was 17.8 µM (active).

For `CNc1nnc(-c2ccc(N(C)C)cc2)s1`, the IC50 [10] was 99.3 µM (active), the EC50 (HT-1080) was > 50 µM (not active) and the EC50 [1] was 2.54 µM (active).

With `O=C(NC1=NCCS1)c1cc2ccccc2o1` the AC50 (HEK293) was 3.65 µM (active), the EC50 (HT-1080) was > 50 µM (not active) and the EC50 [1] was 59.1 µM (active).

In the case of `Cc1nc(-c2ccccc2)sc1C(=O)CSc1ccc(Cl)cc1`, the IC50 [11] is reported as 6.99 µM (active), the IC50 [12] is reported as 11.7 µM (not active) and the IC50 [13] is reported as 5.4 µM (active).

For `CCOc1ccc2nc(NC(=O)c3cnc(C)cn3)sc2c1`, the IC50 (cells [14]) was 6.53 µM (active), the CC50 [15] was 12.7 µM (active) and the CC50 [16] was > 40 µM (active). The CC50 [17] was > 20 µM (active).

In the case of `N=c1n(CCN2CCCCC2)c2ccccc2n1CC(=O)c1ccc(Cl)c(Cl)c1`, the IC50 (cells [14]) is reported as 23.9 µM (active), the CC50 [16] is reported as 18.2 µM (active) and the CC50 [17] is reported as 11.9 µM (active).

For `O=C(Nc1nc2cc3c(cc2s1)OCCO3)C1=COCCO1`, the EC50 [2] was < 0.1 µM (active), the EC50 [3] was 0.411 µM (active) and the EC50 [4] was 0.432 µM (active). For the same compound, the EC50 [18] was 5.65 µM (active), the AC50 [19] was 18.1 µM (active) and the EC50 (cells [5]) was 0.669 µM (active). The EC50 [6] was < 0.1 µM (active), the AC50 [20] was 2.17 µM (active) and the EC50 [21] was 1.58 µM (active). The EC50 [7] was 1.74 µM (active) and the EC50 [9] was < 0.1 µM (active).

For `O=C1OCCN1C(=O)[C@H]1[C@H](c2ccc(F)cc2)C(c2ccc(F)cc2)=NN1c1ccc(Br)cc1`, the AC50 (Trypsin) was 14.1 µM (active).

For `O=C(O)c1ccc(Nc2nc(-c3cc4ccccc4oc3=O)cs2)cc1O`, the IC50 (Aminopeptidase N) was 9.7 µM (active), the IC50 [22] was 7.29 µM (active) and the IC50 [23] was > 50 µM (inactive).
